From ChEMBL document CHEMBL1201862, “PubChem BioAssay data set” (2004)
Where “and” joins values, the source holds several entries; their conditions need not be identical. Equal entries are not always repeated.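 All cell lines were grown in 96-well plates and treated with compound for 48 hours. GI50 is the concentration that inhibits growth by half.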 Calls of active or inactive are those of the source. Cut-off read from the data, not from the text of the source: active = GI50 up to about 1.1 µM and inactive = higher.

Columns and labels:
Assay in all cases: NCI anticancer screen, dose series, 48 h
786-0 = test system: 786-0
A498 = test system: A498
ACHN = test system: ACHN
DMS-273 = test system: DMS-273
HCC 2998 = test system: HCC 2998
IGROV-1 = test system: IGROV-1
KM-20L2 = test system: KM-20L2
M19-MEL = test system: M19-MEL
OVCAR-5 = test system: OVCAR-5
SNB-78 = test system: SNB-78
SR = test system: SR
U-251 = test system: U-251
UACC-62 = test system: UACC-62
COLO 205 = test system: COLO 205
NCI-H522 = test system: NCI-H522
BT-549 = test system: BT-549
Hs-578T = test system: Hs-578T
MDA-N = test system: MDA-N
PC-3 = test system: PC-3
T47D = test system: T47D

Measured: GI50

O=C1CCCC(=O)N1CCc1c[nH]c2ccccc12
inactive: 786-0 > 100 µM | A498 77.3 µM | ACHN > 100 µM | DMS-273 > 100 µM | HCC 2998 > 100 µM | IGROV-1 > 100 µM | KM-20L2 > 100 µM | M19-MEL > 100 µM | OVCAR-5 > 100 µM | SNB-78 > 100 µM | SR > 100 µM | U-251 > 100 µM | UACC-62 > 100 µM

COc1ccccc1C1C(Cl)C(=O)N1n1cnc2ccccc2c1=O (stereo unspecified)
inactive: 786-0 > 100 µM | ACHN > 100 µM | COLO 205 > 100 µM | DMS-273 > 100 µM | HCC 2998 > 100 µM | IGROV-1 > 100 µM | KM-20L2 > 100 µM | M19-MEL > 100 µM | NCI-H522 > 100 µM | OVCAR-5 > 100 µM | SNB-78 > 100 µM | SR 85.9 µM | U-251 48.3 µM | UACC-62 > 100 µM

CCCCCCCCC(O)c1ccc(/C=C\C(O)CCCC(=O)O)s1 (stereo unspecified)
inactive: 786-0 > 100 µM | ACHN > 100 µM | COLO 205 > 100 µM | DMS-273 > 100 µM | HCC 2998 > 100 µM | IGROV-1 > 100 µM | KM-20L2 > 100 µM | M19-MEL > 100 µM | NCI-H522 > 100 µM | OVCAR-5 > 100 µM | SNB-78 > 100 µM | SR > 100 µM | U-251 > 100 µM | UACC-62 > 100 µM

COc1cc(NC(C)CCCN)c2ncccc2c1 (stereo unspecified) [PRIMAQUINE PHOSPHATE]
inactive: ACHN 51.6 µM and 82 µM | BT-549 41.1 µM | COLO 205 17.8 µM and 32.5 µM | DMS-273 > 100 µM | HCC 2998 28.2 µM and 16.9 µM | Hs-578T 39.4 µM | IGROV-1 51.4 µM and > 88.7 µM | KM-20L2 57.5 µM | M19-MEL 47.5 µM | MDA-N 29.6 µM | NCI-H522 90.6 µM and 52.1 µM | OVCAR-5 > 91 µM and > 83.4 µM | PC-3 33.6 µM | SNB-78 > 100 µM | T47D 16 µM
